Assay results as given in ChEMBL document CHEMBL5032533, “Design, synthesis and anti-TNBC activity of Azeliragon triazole analogues” (Bioorg Med Chem Lett, 2021).

These compounds were tested on SUM149PT (assay: Cytotoxicity against human triple negative SUM149PT cells assessed as cell viability measured by MTS assay).
Type: functional, cell-based

Row | SMILES | IC50 [µM]
1 | CCCCc1nc(-c2ccc(OCCC)cc2)nn1-c1ccc(Oc2ccccc2)cc1 | 13.7
2 | CCCCOc1ccc(-c2nc(CCCC)n(-c3ccc(Oc4ccc(Cl)cc4)cc3)n2)cc1 | 16
3 | CCCCc1nc(-c2ccc(OCCCN(CC)CC)cc2)cn1-c1ccc(Oc2ccc(Cl)cc2)cc1 [AZELIRAGON] | 5.29
4 | CCCCc1nc(-c2ccc(OCCCN(CC)CC)cc2)nn1-c1ccc(Oc2ccccc2)cc1 | 0.538
5 | CCCCc1nc(-c2ccc(OCCCN(CC)CC)cc2)nn1-c1ccc(-c2ccc(OC(F)(F)F)cc2)cc1 | 0.664
6 | CCCCc1nc(-c2ccc(OCCCN(CC)CC)cc2)nn1-c1ccc(-c2ccc(C)cc2)cc1 | 0.267
7 | CCCCc1nc(-c2ccc(OCCN3CCCCC3)cc2)nn1-c1ccc(Oc2ccc(Cl)cc2)cc1 | 5.68
8 | CCCCc1nc(-c2ccc(OCCCN(CC)CC)cc2)nn1-c1ccc(-c2ccc(C#N)cc2)cc1 | 5.43
9 | CCCCc1nc(-c2ccc(OCCOCC)cc2)nn1-c1ccc(Oc2ccc(Cl)cc2)cc1 | 18.6
10 | CCCCc1nc(-c2ccc(OCCCN(CC)CC)cc2)nn1-c1ccc(-c2ccc(OC)cc2OC)cc1 | 0.487
11 | CCCCc1nc(-c2ccc(OCCCN(CC)CC)cc2)nn1-c1ccc(-c2ccnn2C)cc1 | 0.665
12 | CCCCc1nc(-c2ccc(OCCCN(CC)CC)cc2)nn1-c1ccc(Oc2ccc(Cl)cc2)cc1 | 6.29
13 | CCCCc1nc(-c2ccc(OCCCN(CC)CC)cc2)nn1-c1ccc(-c2ccc(OC)cc2)cc1 | 0.588
14 | CCN(CC)CCCOc1ccc(-c2nc(CCOC)n(-c3ccc(Oc4ccc(Cl)cc4)cc3)n2)cc1 | 12.5
15 | CCCCc1nc(-c2ccc(OCCCN(CC)CC)cc2)nn1-c1ccc(-c2ccc(C(=O)OCC)cc2)cc1 | 0.328
16 | CCCCc1nc(-c2ccc(OCCCN(CC)CC)cc2)nn1-c1ccc(-c2ccc(Cl)cc2)cc1 | 0.22
